For 28 compounds, EC30 results are on record in patent US10758534B2 (Vertex Pharmaceuticals Incorporated, priority 2014, dated 2020).

Structures are written as SMILES.

For this assay, the target named is T1, F508del (Homo sapiens, UniProt P13569, DEL508-508).
T1 construct: expressed in transfected cells
T1 sequence (P13569 with tags, fused parts or gaps DEL508-508): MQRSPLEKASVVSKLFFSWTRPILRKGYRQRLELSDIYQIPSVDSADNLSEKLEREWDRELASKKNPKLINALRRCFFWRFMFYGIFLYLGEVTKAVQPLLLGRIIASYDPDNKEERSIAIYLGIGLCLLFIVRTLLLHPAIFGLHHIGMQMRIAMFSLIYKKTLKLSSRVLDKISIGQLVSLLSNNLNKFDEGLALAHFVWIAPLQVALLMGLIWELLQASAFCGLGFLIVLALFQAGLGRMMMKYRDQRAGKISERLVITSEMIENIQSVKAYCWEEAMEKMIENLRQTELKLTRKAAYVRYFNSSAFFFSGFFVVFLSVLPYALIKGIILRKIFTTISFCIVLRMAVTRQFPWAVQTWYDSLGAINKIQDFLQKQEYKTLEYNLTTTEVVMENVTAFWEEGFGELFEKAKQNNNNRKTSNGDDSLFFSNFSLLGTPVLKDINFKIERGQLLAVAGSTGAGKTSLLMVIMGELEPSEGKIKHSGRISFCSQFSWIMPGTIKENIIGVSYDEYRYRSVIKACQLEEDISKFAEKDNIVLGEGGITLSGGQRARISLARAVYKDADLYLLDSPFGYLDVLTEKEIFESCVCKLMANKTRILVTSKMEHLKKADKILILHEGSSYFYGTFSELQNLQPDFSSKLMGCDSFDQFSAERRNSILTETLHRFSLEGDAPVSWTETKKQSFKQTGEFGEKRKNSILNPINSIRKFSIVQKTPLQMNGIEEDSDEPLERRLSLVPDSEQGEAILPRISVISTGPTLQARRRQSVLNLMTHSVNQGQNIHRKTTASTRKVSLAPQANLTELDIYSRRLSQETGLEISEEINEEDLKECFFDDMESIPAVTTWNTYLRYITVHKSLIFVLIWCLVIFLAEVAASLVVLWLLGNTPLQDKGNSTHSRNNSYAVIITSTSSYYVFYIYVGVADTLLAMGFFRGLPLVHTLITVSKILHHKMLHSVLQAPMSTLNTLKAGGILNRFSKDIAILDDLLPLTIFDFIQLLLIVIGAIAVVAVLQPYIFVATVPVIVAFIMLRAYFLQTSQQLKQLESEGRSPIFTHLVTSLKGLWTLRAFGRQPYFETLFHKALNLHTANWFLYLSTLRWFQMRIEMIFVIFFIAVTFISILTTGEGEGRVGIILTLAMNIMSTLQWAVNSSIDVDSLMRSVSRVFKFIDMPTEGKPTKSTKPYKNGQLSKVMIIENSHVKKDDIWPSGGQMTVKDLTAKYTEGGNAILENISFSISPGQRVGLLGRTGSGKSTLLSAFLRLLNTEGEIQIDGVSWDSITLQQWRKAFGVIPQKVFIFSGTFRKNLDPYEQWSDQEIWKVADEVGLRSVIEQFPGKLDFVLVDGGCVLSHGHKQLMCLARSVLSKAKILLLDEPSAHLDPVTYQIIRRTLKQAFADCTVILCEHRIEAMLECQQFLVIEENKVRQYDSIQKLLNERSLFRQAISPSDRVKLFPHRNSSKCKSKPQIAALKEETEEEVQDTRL
Briefly: Protocol 1: membrane potential optical assay (FLIPR III, voltage sensing dye), identification of potentiator compounds. Type of assay: cell-based. To be noted: Table 3, compounds of Table 1. In short, it runs like this:
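NIH3T3 F508del cells, 27° C × 24 hrs; compound/DMSO pretreat → redistribution dye load → single forskolin addition with Cl⁻ gradient (gluconate-substituted bath, HEPES pH 7.4). FLIPR III membrane-potential fluorescence read.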
In the case of `Cc1ccc(-c2ccc(C(=O)NS(=O)(=O)c3cccc(N)n3)c(Oc3c(C)cc(C)cc3C)n2)nc1` [Compound 1290, N-[(6-amino-2-pyridyl)sulfonyl]-6-(5-methyl-2-pyridyl)-2-(2,4,6-trimethylphenoxy)pyridine-3-carboxamide], the EC30 result was “+++ (“+++” means <3 uM)”.
For `CC(C)Oc1ccc(-c2ccc(C(=O)NS(=O)(=O)c3cccc(N)n3)c(N3CCC[C@H](c4ccccc4)C3)n2)cn1` [Compound 1209], the EC30 result is “+++ (“+++” means <3 uM)”.
With `CCOc1cc(F)cc(-c2ccc(C(=O)NS(=O)(=O)c3ccc[nH]c3=O)c(N3[C@H](C)CC[C@@H]3C)n2)c1` [Compound 1096, 2-[(2R,5S)-2,5-dimethylpyrrolidin-1-yl]-6-(3-ethoxy-5-fluoro-phenyl)-N-[(2-oxo-1H-pyridin-3-yl)sulfonyl]pyridine-3-carboxamide], the EC30 result was “++ (“++” means between 3 uM and 10 uM)”.
With `Cc1cc(C)c(Oc2nc(C)c(C)cc2C(=O)NS(=O)(=O)c2cccc(N)n2)c(C)c1` [Compound 841, N-[(6-amino-2-pyridyl)sulfonyl]-5,6-dimethyl-2-(2,4,6-trimethylphenoxy)pyridine-3-carboxamide] the entry was “+++ (“+++” means <3 uM)”; with `CC(C)COc1cc(F)cc(-c2ccc(C(=O)NS(=O)(=O)N3CCC(N)C3)c(N3CC(C)CC3(C)C)n2)c1` (stereo not shown) [Compound 1467, N-(3-aminopyrrolidin-1-yl)sulfonyl-6-(3-fluoro-5-isobutoxy-phenyl)-2-(2,2,4-trimethylpyrrolidin-1-yl)pyridine-3-carboxamide], “+++ (“+++” means <3 uM)”.
With `Cc1ccc(Oc2nc3c(cc2C(=O)NS(=O)(=O)c2nccnc2N)CCCC3(C)C)c(C)c1` [Compound 1239, N-(3-aminopyrazin-2-yl)sulfonyl-2-(2,4-dimethylphenoxy)-8,8-dimethyl-6,7-dihydro-5H-quinoline-3-carboxamide] the entry was “+++ (“+++” means <3 uM)”.
With `C[C@@H]1CC[C@H](C)N1c1nc(-c2ccc(F)cc2)ccc1C(=O)NS(=O)(=O)c1cccc(N)n1` [Compound 1029, N-[(6-amino-2-pyridyl)sulfonyl]-2-[(2S,5R)-2,5-dimethylpyrrolidin-1-yl]-6-(4-fluorophenyl)pyridine-3-carboxamide] the entry was “++ (“++” means between 3 uM and 10 uM)”.
Take `CC1CN(c2nc(-c3ccc(Cl)cc3)ccc2C(=O)NS(=O)(=O)c2cccc(N)n2)C(C)(C)C1` (stereo not shown) [Compound 1100, N-[(6-amino-2-pyridyl)sulfonyl]-6-(4-chlorophenyl)-2-(2,2,4-trimethylpyrrolidin-1-yl)pyridine-3-carboxamide]: the EC30 result is listed as “+++ (“+++” means <3 uM)”.
As for `COc1cc(F)c(-c2ccc(C(=O)NS(=O)(=O)c3cccc(N)n3)c(Oc3c(C)cc(C)cc3C)n2)cc1F` [Compound 984, N-[(6-amino-2-pyridyl)sulfonyl]-6-(2,5-difluoro-4-methoxy-phenyl)-2-(2,4,6-trimethylphenoxy)pyridine-3-carboxamide], the EC30 result is listed as “+++ (“+++” means <3 uM)”.
Take `CC(C)Oc1ccc(-c2ccc(C(=O)NS(=O)(=O)c3cccnc3N)c(N3C[C@@H](C)CC3(C)C)n2)cn1` [Compound 1660, N-[(2-amino-3-pyridyl)sulfonyl]-6-(6-isopropoxy-3-pyridyl)-2-[(4S)-2,2,4-trimethylpyrrolidin-1-yl]pyridine-3-carboxamide]: the EC30 result is on record as “+++ (“+++” means <3 uM)”.
To `Cc1cccc(C)c1Cn1nc(C(C)(C)C)cc1C(=O)NS(=O)(=O)c1ccco1` [Compound 1468, 5-tert-butyl-2-[(2,6-dimethylphenyl)methyl]-N-(2-furylsulfonyl)pyrazole-3-carboxamide] belongs “+++ (“+++” means <3 uM)”; to `CC(C)COc1cc(F)cc(-c2ccc(C(=O)NS(=O)(=O)c3cccc(N)n3)c(OC(C)c3cccnc3)n2)c1` (stereo not shown) [Compound 1434, N-[(6-amino-2-pyridyl)sulfonyl]-6-(3-fluoro-5-isobutoxy-phenyl)-2-[1-(3-pyridyl)ethoxy]pyridine-3-carboxamide], “+++ (“+++” means <3 uM)”; to `CC(C)COc1cc(F)cc(-c2ccc(C(=O)NS(=O)(=O)C3CCOC3)c(N3C[C@@H](C)CC3(C)C)n2)c1` (stereo partly drawn) [Compound 1640, 6-(3-fluoro-5-isobutoxy-phenyl)-N-tetrahydrofuran-3-ylsulfonyl-2-[(4S)-2,2,4-trimethylpyrrolidin-1-yl]pyridine-3-carboxamide], “+++ (“+++” means <3 uM)”.
With `CC(C)Oc1ccc(-c2ccc(C(=O)NS(=O)(=O)c3cccc(N)n3)c(N3CCC(F)CC3)n2)cn1` [Compound 913, N-[(6-amino-2-pyridyl)sulfonyl]-2-(4-fluoro-1-piperidyl)-6-(6-isopropoxy-3-pyridyl)pyridine-3-carboxamide] the entry was “++ (“++” means between 3 uM and 10 uM)”; with `COc1ccc(C#N)cc1-c1ccc(C(=O)NS(=O)(=O)c2cccc(N)n2)c(Oc2c(C)cc(C)cc2C)n1` [Compound 1111, N-[(6-amino-2-pyridyl)sulfonyl]-6-(5-cyano-2-methoxy-phenyl)-2-(2,4,6-trimethylphenoxy)pyridine-3-carboxamide], “+++ (“+++” means <3 uM)”.
With `Cc1cc(C)c(Oc2ncc(CCc3ccccc3)cc2C(=O)NS(=O)(=O)c2cccc(N)n2)c(C)c1` [Compound 1253, N-[(6-amino-2-pyridyl)sulfonyl]-5-phenethyl-2-(2,4,6-trimethylphenoxy)pyridine-3-carboxamide] the entry was “++ (“++” means between 3 uM and 10 uM)”; with `CC1CN(c2nc(-c3ccccc3)ccc2C(=O)NS(=O)(=O)c2cccc(N)n2)C(C)(C)C1` (stereo not shown) [Compound 1334, N-[(6-amino-2-pyridyl)sulfonyl]-6-phenyl-2-(2,2,4-trimethylpyrrolidin-1-yl)pyridine-3-carboxamide], “+++ (“+++” means <3 uM)”.
Regarding `CC(C)(C)c1ccc(C(=O)NS(=O)(=O)c2cccc(N)n2)c(Oc2ccccc2)n1` [Compound 1046, N-[(6-amino-2-pyridyl)sulfonyl]-6-tert-butyl-2-phenoxy-pyridine-3-carboxamide], the EC30 entry is “++ (“++” means between 3 uM and 10 uM)”.
For `CCC/C=C/c1cc(C(=O)NS(=O)(=O)c2cccc(N)n2)c(N2C[C@@H](C)CC2(C)C)nc1C(C)(C)C` [Compound 1617, N-[(6-amino-2-pyridyl)sulfonyl]-6-tert-butyl-5-[(E)-pent-1-enyl]-2-[(4S)-2,2,4-trimethylpyrrolidin-1-yl]pyridine-3-carboxamide], the EC30 entry is “+++ (“+++” means <3 uM)”.
To `CCC1(C)CC(C)CN1c1nc(-c2cc(F)cc(OCC(C)C)c2)ccc1C(=O)NS(=O)(=O)c1cccc(N)n1` (single isomer, unassigned) [Compound 1729, N-[(6-amino-2-pyridyl)sulfonyl]-2-(2-ethyl-2,4-dimethyl-pyrrolidin-1-yl)-6-(3-fluoro-5-isobutoxy-phenyl)pyridine-3-carboxamide] belongs “+++ (“+++” means <3 uM)”; to `CC(C)COc1cc(F)cc(-c2ccc(C(=O)NS(=O)(=O)c3ccccc3)c(N3C[C@H](C)CC3(C)C)n2)c1` [Compound 1396, N-(benzenesulfonyl)-6-(3-fluoro-5-isobutoxy-phenyl)-2-[(4R)-2,2,4-trimethylpyrrolidin-1-yl]pyridine-3-carboxamide], “+++ (“+++” means <3 uM)”; to `CCOc1cccc2c1CN(Cc1ccc(F)cc1)C2(C)C(=O)NS(=O)(=O)c1cccc(F)n1` (stereo not shown) [Compound 1583, 4-ethoxy-2-[(4-fluorophenyl)methyl]-N-[(6-fluoro-2-pyridyl)sulfonyl]-1-methyl-isoindoline-1-carboxamide], “++ (“++” means between 3 uM and 10 uM)”.
To `COc1ccc(C)c(-c2nc(N3CC(C)CC3(C)C)c(C(=O)NS(=O)(=O)c3cccc(N)n3)cc2C)c1` (stereo not shown) [Compound 1287, N-[(6-amino-2-pyridyl)sulfonyl]-6-(5-methoxy-2-methyl-phenyl)-5-methyl-2-(2,2,4-trimethylpyrrolidin-1-yl)pyridine-3-carboxamide] belongs “+++ (“+++” means <3 uM)”; to `CC1CN(c2ncccc2C(=O)NS(=O)(=O)c2cccc(OCc3ccccc3F)n2)C(C)(C)C1` (stereo not shown) [Compound 1798, N—[[6-[(2-fluorophenyl)methoxy]-2-pyridyl]sulfonyl]-2-(2,2,4-trimethylpyrrolidin-1-yl)pyridine-3-carboxamide], “+++ (“+++” means <3 uM)”; to `CC(C)COc1cc(F)cc(-c2ccc(C(=O)NS(=O)(=O)N3CC[C@H](N)C3)c(N3C[C@@H](C)CC3(C)C)n2)c1` [Compound 1557, N-[(3S)-3-aminopyrrolidin-1-yl]sulfonyl-6-(3-fluoro-5-isobutoxy-phenyl)-2-[(4S)-2,2,4-trimethylpyrrolidin-1-yl]pyridine-3-carboxamide], “+++ (“+++” means <3 uM)”.
For `C[C@@H]1CN(c2nc(-c3cccc(F)c3)ccc2C(=O)NS(=O)(=O)c2ccc[nH]c2=O)C(C)(C)C1` [Compound 1925, 6-(3-fluorophenyl)-N-[(2-oxo-1H-pyridin-3-yl)sulfonyl]-2-[(4S)-2,2,4-trimethylpyrrolidin-1-yl]pyridine-3-carboxamide], the EC30 entry was “+++ (“+++” means <3 uM)”.
Take `Cc1cc(C)c(Oc2nc(C3=CCCCC3)ccc2C(=O)NS(=O)(=O)c2ccc[nH]c2=O)c(C)c1` [Compound 882, 6-(cyclohexen-1-yl)-N-[(2-oxo-1H-pyridin-3-yl)sulfonyl]-2-(2,4,6-trimethylphenoxy)pyridine-3-carboxamide]: the EC30 result was “+++ (“+++” means <3 uM)”.
With `Cc1cc(C)c(Oc2nc(-c3ccc(O)cc3)ccc2C(=O)NS(=O)(=O)c2cccc(N)n2)c(C)c1` [Compound 1344, N-[(6-amino-2-pyridyl)sulfo]-6-(4-hydroxyphenyl)-2-(2,4,6-trimethylphenoxy)pyridine-3-carboxamide] the entry was “++ (“++” means between 3 uM and 10 uM)”.
